This passage reports Emax and EC50 results from patent publication US8859549B2, “Potassium channel modulators” (AbbVie, Inc., priority 2011, dated 2014).

The target in the assay is T1, KCNQ 2/3 channels (Homo sapiens, UniProt O43525+O43526).
T1 construct: expressed in transfected cells; host or cells: HEK293
Kind of assay: KCNQ 2/3 channel activation, thallium flux FLIPR assay (BTC-AM dye). The format is cell-based. To be noted: for Emax: HEK293, maximum response relative to the response of 10 μM retigabine (set at 100%), HEK293 KCNQ2/KCNQ3 cells, read-out: % MAX; for pEC50: HEK293 cells stably expressing human KCNQ2 and KCNQ3 subunits, thallium-induced fluorescence, 4 min compound incubation. Here is the method:
The following example describes the assay that can be used to identify compounds that activate KCNQ 2/3 channels.
HEK293 cells stably expressing human KCNQ2 and KCNQ3 subunits were seeded in 96-well, black-walled, clear-bottomed, poly-D-lysine coated plates (BD Biosciences, Bedford, Mass.) at a density of 1×10^5 cells per well 24 hours before the assay. On the assay day, BTC-AM dye (Invitrogen, Carlsbad, Calif.) was loaded into the cells by replacing the cell culture medium with 55 μL/well of 3 μg/mL dye in DPBS. Dye loading was allowed to proceed for 2 hours at room temperature and then cells were washed twice with 50 μL/well of assay buffer (in mM: 10 HEPES pH 7.3, 5 glucose, 140 Na-gluconate, 2.5 K-gluconate, 3.6 Ca-gluconate, 2 MgSO4, 0.1 Ouabain) to remove unloaded dye. Cells were incubated in 50 μL of assay buffer before loading onto a FLIPR system (Molecular Devices, Sunnyvale, Calif.). Various concentrations of compounds to be assayed were added to the cells in 50 μL of assay buffer and incubated for 4 minutes. The fluorescence signal was initiated by adding 100 μL of assay buffer containing 6 mM TlNO3 and 10 mM K2SO4. Fluors were excited using the 488-nm line of an argon laser and emission was filtered using a 540±30 nm bandpass filter. Fluorescent signals were recorded for 3 minutes. Sums of the responses over basal responses were plotted versus concentrations of test compounds to obtain an EC50 value. The maximum response for each test compound was determined relative to the response produced by 10 μM retigabine. The maximum response of retigabine at 10 μM was set at 100%.

For orientation: pEC50 means the EC50 on a negative log10 scale, so that one unit is a factor of ten. Low values mean a high EC50, high ones a low EC50.

The structures appear in SMILES notation. pEC50: −log10 of the molar value.

With `O=C(CC1CC2CCC1C2)Nn1nc(Sc2ccc(Br)cc2)c2ccccc2c1=O` (racemic) [Example 200, (±)-2-[(exo)-bicyclo[2.2.1]hept-2-yl]-N-{4-[(4-bromophenyl)sulfanyl]-1-oxophthalazin-2(1H)-yl}acetamide], the Emax was 180% and the pEC50 is 7.63. The corresponding values for `O=C(CC1CC2CCC1C2)Nn1nc(S(=O)(=O)c2ccc(Br)cc2)c2ccccc2c1=O` (racemic) [Example 204, (±)-2-[(exo)-bicyclo[2.2.1]hept-2-yl]-N-{4-[(4-bromophenyl)sulfonyl]-1-oxophthalazin-2(1H)-yl}acetamide] are 164% and 7.62. For `O=C(CC1CC2CCC1C2)Nn1nc(SCc2ccccc2)c2ccccc2c1=O` (racemic) [Example 214, (±)-N-[4-(benzylsulfanyl)-1-oxophthalazin-2(1H)-yl]-2-[(exo)-bicyclo[2.2.1]hept-2-yl]acetamide] the same measures were 197% and 7.66.

Take `O=C(CC1CC2CCC1C2)Nn1nc(S(=O)(=O)Cc2ccccc2)c2ccccc2c1=O` (racemic) [Example 217, (±)-N-[4-(benzylsulfonyl)-1-oxophthalazin-2(1H)-yl]-2-[(exo)-bicyclo[2.2.1]hept-2-yl]acetamide]: the Emax turned out to be 147% and the pEC50 is 7.13.

Consider `N#Cc1ccc(S(=O)(=O)c2nn(NC(=O)C[C@H]3C[C@@H]4CC[C@H]3C4)c(=O)c3ccccc23)cc1` (racemic) [Example 219, (±)-2-[(exo)-bicyclo[2.2.1]hept-2-yl]-N-{4-[(4-cyanophenyl)sulfonyl]-1-oxophthalazin-2(1H)-yl}acetamide], for which the Emax came out at 145% and the pEC50 is 7.84. The corresponding values for `CCC1CN(c2nn(NC(=O)CC3CC4CCC3C4)c(=O)c3ccccc23)CCO1` (racemic) [Example 220, (±)-2-[(exo)-bicyclo[2.2.1]hept-2-yl]-N-[4-(2-ethylmorpholin-4-yl)-1-oxophthalazin-2(1H)-yl]acetamide] are 139% and 7.24. The corresponding values for `O=C(Cc1cc(F)cc(F)c1)Nn1nc(N2CCOCC2)c2ccccc2c1=O` [Example 1, 2-(3,5-difluorophenyl)-N-[4-(morpholin-4-yl)-1-oxophthalazin-2(1H)-yl]acetamide] are 130% and 5.35. For `O=C(Cc1ccc(Cl)cc1)Nn1nc(N2CCOCC2)c2ccccc2c1=O` [Example 2, 2-(4-chlorophenyl)-N-[4-(morpholin-4-yl)-1-oxophthalazin-2(1H)-yl]acetamide] the same measures were 117% and 5.57. For `O=C(Cc1ccc(Cl)cc1)Nn1nc(-c2ccc(Cl)nc2)c2ccccc2c1=O` [Example 5, 2-(4-chlorophenyl)-N-[4-(6-chloropyridin-3-yl)-1-oxophthalazin-2(1H)-yl]acetamide], the Emax came to 85.2% and the negative-log EC50 (pEC50) was 6.33.

On to `O=C(Cc1cc(F)cc(F)c1)Nn1nc(C2=CCOCC2)c2ccccc2c1=O` [Example 7, 2-(3,5-difluorophenyl)-N-[4-(3,6-dihydro-2H-pyran-4-yl)-1-oxophthalazin-2(1H)-yl]acetamide], for which the Emax stood at 140% and the pEC50 is 5.50. `O=C(Cc1ccc(Cl)cc1)Nn1nc(-c2cccnc2)c2ccccc2c1=O` [Example 9, 2-(4-chlorophenyl)-N-[1-oxo-4-(pyridin-3-yl)phthalazin-2(1H)-yl]acetamide]: the Emax worked out at 19.6%.

With `O=C(Cc1cc(F)cc(F)c1)Nn1nc(-c2cccs2)c2ccccc2c1=O` [Example 10, 2-(3,5-difluorophenyl)-N-[1-oxo-4-(thiophen-2-yl)phthalazin-2(1H)-yl]acetamide], the Emax was found to be 137% and the pEC50 is 6.79. With `O=C(Cc1ccc(Cl)cc1)Nn1nc(-c2cccs2)c2ccccc2c1=O` [Example 11, 2-(4-chlorophenyl)-N-[1-oxo-4-(thiophen-2-yl)phthalazin-2(1H)-yl]acetamide], the Emax came to 105% and the pEC50 was 6.53. The corresponding values for `O=C(C[C@@H]1C[C@@H]2C=C[C@H]1C2)Nn1nc(-c2cccs2)c2ccccc2c1=O` [Example 13, 2-[(1S,2S,4S)-bicyclo[2.2.1]hept-5-en-2-yl]-N-[1-oxo-4-(thiophen-2-yl)phthalazin-2(1H)-yl]acetamide] are 138% and 6.88. The corresponding values for `Cc1ccsc1-c1nn(NC(=O)Cc2cc(F)cc(F)c2)c(=O)c2ccccc12` [Example 14, 2-(3,5-difluorophenyl)-N-[4-(3-methylthiophen-2-yl)-1-oxophthalazin-2(1H)-yl]acetamide] are 146% and 6.53. For `Cc1ccsc1-c1nn(NC(=O)Cc2ccc(Cl)cc2)c(=O)c2ccccc12` [Example 15, 2-(4-chlorophenyl)-N-[4-(3-methylthiophen-2-yl)-1-oxophthalazin-2(1H)-yl]acetamide] the same measures were 124% and 6.07.

With `Cc1ccsc1-c1nn(NC(=O)C[C@@H]2C[C@@H]3C=C[C@H]2C3)c(=O)c2ccccc12` [Example 17, 2-[(1S,2S,4S)-bicyclo[2.2.1]hept-5-en-2-yl]-N-[4-(3-methylthiophen-2-yl)-1-oxophthalazin-2(1H)-yl]acetamide], the Emax was 139% and the pEC50 was 6.68. For `O=C(Cc1cc(F)cc(F)c1)Nn1nc(-c2ccccn2)c2ccccc2c1=O` [Example 18, 2-(3,5-difluorophenyl)-N-[1-oxo-4-(pyridin-2-yl)phthalazin-2(1H)-yl]acetamide], the Emax is 112% and the negative-log EC50 (pEC50) is 5.55. As to `O=C(Cc1cc(F)cc(F)c1)Nn1nc(N2CCCC2)c2ccccc2c1=O` [Example 20, 2-(3,5-difluorophenyl)-N-[1-oxo-4-(pyrrolidin-1-yl)phthalazin-2(1H)-yl]acetamide], the Emax came out at 145% and the pEC50 is 6.67.

`O=C(Cc1ccc(Cl)cc1)Nn1nc(N2CCCC2)c2ccccc2c1=O` [Example 21, 2-(4-chlorophenyl)-N-[1-oxo-4-(pyrrolidin-1-yl)phthalazin-2(1H)-yl]acetamide]: the Emax stood at 136% and the pEC50 was 6.70. For `O=C(Cc1cc(F)cc(F)c1)Nn1nc(N2CCCCC2)c2ccccc2c1=O` [Example 22, 2-(3,5-difluorophenyl)-N-[1-oxo-4-(piperidin-1-yl)phthalazin-2(1H)-yl]acetamide] the same measures were 134% and 7.06. As to `O=C(Cc1ccc(Cl)cc1)Nn1nc(N2CCCCC2)c2ccccc2c1=O` [Example 24, 2-(4-chlorophenyl)-N-[1-oxo-4-(piperidin-1-yl)phthalazin-2(1H)-yl]acetamide], the Emax was 140% and the pEC50 was 7.07.

As to `CC(C)(CC(=O)Nn1nc(-c2ccc(Cl)nc2)c2ccccc2c1=O)c1ccccc1` [Example 27, N-[4-(6-chloropyridin-3-yl)-1-oxophthalazin-2(1H)-yl]-3-methyl-3-phenylbutanamide], the Emax was determined as 134% and the pEC50 was 6.58. For `O=C(Cc1cc(F)cc(F)c1)Nn1nc(Cc2ccc(Cl)nc2)c2ccccc2c1=O` [Example 31, N-{4-[(6-chloropyridin-3-yl)methyl]-1-oxophthalazin-2(1H)-yl}-2-(3,5-difluorophenyl)acetamide] the same measures were 72.1% and 6.48. The corresponding values for `O=C(Cc1ccc(Cl)cc1)Nn1nc(Cc2ccc(Cl)nc2)c2ccccc2c1=O` [Example 32, 2-(4-chlorophenyl)-N-{4-[(6-chloropyridin-3-yl)methyl]-1-oxophthalazin-2(1H)-yl}acetamide] are 46.2% and 6.83.

For `CC(C)(CC(=O)Nn1nc(N2CCOCC2)c2ccccc2c1=O)c1ccccc1` [Example 33, 3-methyl-N-[4-(morpholin-4-yl)-1-oxophthalazin-2(1H)-yl]-3-phenylbutanamide], the Emax worked out at 131% and the pEC50 is 5.80. On to `CN(Cc1ccccc1)c1nn(NC(=O)Cc2ccc(Cl)cc2)c(=O)c2ccccc12` [Example 36, N-{4-[benzyl(methyl)amino]-1-oxophthalazin-2(1H)-yl}-2-(4-chlorophenyl)acetamide], for which the Emax turned out to be 105% and the pEC50 was 6.66.

As to `O=C(Cc1cc(F)cc(F)c1)Nn1nc(Oc2ccccc2)c2ccccc2c1=O` [Example 38, 2-(3,5-difluorophenyl)-N-(1-oxo-4-phenoxyphthalazin-2(1H)-yl)acetamide], the Emax amounted to 122% and the pEC50 was 7.50. Regarding `NCc1nn(NC(=O)Cc2ccc(Cl)cc2)c(=O)c2ccccc12` [Example 42, N-[4-(aminomethyl)-1-oxophthalazin-2(1H)-yl]-2-(4-chlorophenyl)acetamide], the Emax was 8.66%.
